Data reported in ChEMBL document CHEMBL5120747, “Mononucleoside phosphorodithiolates as mononucleotide prodrugs” (Eur J Med Chem, 2022).

Key:
[1] = Prodrug conversion in human CEM-SS cell extract assessed as parent ddA formation at 0.00005 M measured at 50 to 150 hrs by HPLC analysis; format: ADME, cell-based; settings: 50 µM, time 50-150 hrs
[2] = test system: Human immunodeficiency virus 1; assay: Anti-HIV activity against HIV-1 infected in human CEM-SS cells assessed as inhibition of viral replication; format: functional, organism-based; settings: Human immunodeficiency virus 1, CEM-SS
[3] = test system: Human immunodeficiency virus 1; assay: Anti-HIV activity against HIV-1 infected in human MT4 cells assessed as inhibition of viral replication; format: functional, organism-based; settings: Human immunodeficiency virus 1, MT4
[4] = test system: Human immunodeficiency virus 1; assay: Anti-HIV activity against HIV-1 infected in human PBMC assessed as inhibition of viral replication; format: functional, organism-based; settings: Human immunodeficiency virus 1, PBMC
[5] = test system: Human immunodeficiency virus 1; assay: Anti-HIV activity against HIV-1 infected in human MDM assessed as inhibition of viral replication; format: functional, organism-based
CEM-SS = assay: Cytotoxicity against human CEM-SS cells assessed as reduction in cell viability; format: functional
[6] = Cytotoxicity against human MT4 cells assessed as reduction in cell viability; format: toxicity, cell-based
[7] = Cytotoxicity against human PBMC assessed as reduction in cell viability; format: toxicity, cell-based
[8] = Cytotoxicity against human MDM assessed as reduction in cell viability; format: toxicity, cell-based
[9] = test system: Human immunodeficiency virus 1; assay: Anti-HIV activity against HIV-1 infected in human CEM-TK(-) cells assessed as inhibition of viral replication; format: functional, organism-based; settings: Human immunodeficiency virus 1, CEM-TK(-)
CEM-TK(-) = assay: Cytotoxicity against human CEM-TK(-) cells assessed as reduction in cell viability; format: functional
[10] = Stability of compound in phosphate buffer at pH 7.4 by HPLC analysis; format: physicochemical
[11] = Stability of compound in RPMI 1640 culture medium at pH 7.45 by HPLC analysis; format: physicochemical; settings: buffer
[12] = Prodrug conversion in human CEM-SS cell extract assessed as ddAMP formation at 0.00005 M measured at 100 to 500 mins by HPLC analysis; format: ADME, cell-based; settings: 50 µM, time 100-500 min
[13] = Stability of compound in phosphate buffer at pH 7.4 assessed as compound half life by HPLC analysis; format: physicochemical
[14] = Stability of compound in RPMI 1640 culture medium at pH 7.45 assessed as compound half life by HPLC analysis; format: physicochemical
[15] = Stability of compound in inactivated fetal calf serum with RPMI 1640 culture medium assessed as compound half life by HPLC analysis; format: ADME, cell-free, Bos taurus; settings: cattle
[16] = Stability of compound in human CEM-SS cell extract at pH 7.45 assessed as compound half life by HPLC analysis; format: ADME, cell-based
[17] = Prodrug conversion in human CEM-SS cell extract assessed as O-((2S,5R)-5-(6-amino-9H-purin-9-yl)tetrahydrofuran-2-yl)methyl S-2-(pivaloylthio)ethyl phos-phorothioate sodium salt metabolite formation at 0.00005 M measured at 5 to 15 hrs by HPLC analysis; format: ADME, cell-based; settings: 50 µM, time 5-15 hrs
[18] = Prodrug conversion in human CEM-SS cell extract assessed as metabolite X formation at 0.00005 M measured at 100 to 500 mins by HPLC analysis; format: ADME, cell-based; settings: 50 µM, time 100-500 min
[19] = Prodrug conversion in inactivated fetal calf serum with RPMI 1640 culture medium assessed as S-(O-pivaloyl-2-oxyethyl)O-2',3'-dideoxyadenosin-5'-yl phos-phorothiolate diester sodium salt metabolite formation at 0.00005 M measured at 50 to 150 hrs by HPLC analysis; format: ADME, cell-free, Bos taurus; settings: cattle, 50 µM, time 50-150 hrs
[20] = Prodrug conversion in human CEM-SS cell extract assessed as S-(O-pivaloyl-2-oxyethyl)O-2',3'-dideoxyadenosin-5'-yl phos-phorothiolate diester sodium salt metabolite formation at 0.00005 M measured at 5 to 15 hrs by HPLC analysis; format: ADME, cell-based; settings: 50 µM, time 5-15 hrs

| EC50 [2] [nM] | EC50 [3] [nM] | EC50 [9] [nM] | SMILES | CC50 (CEM-SS) [nM] | CC50 [6] [nM] | CC50 (CEM-TK(-)) [nM] | also measured |
| --- | --- | --- | --- | --- | --- | --- | --- |
|  |  |  | Nc1ncnc2c1ncn2[C@H]1CC[C@@H](COP(=O)(O)O)O1 |  |  |  | Drug metabolism [1]: Metabolite_Detected |
| 490 | 7800 |  | Nc1ncnc2c1ncn2[C@H]1CC[C@@H](CO)O1 | > 100000 | > 100000 |  | EC50 [4]: 240 nM; EC50 [5]: 120 nM; CC50 [7]: > 100000 nM; CC50 [8]: 100000 nM |
| 700 | 16000 | > 100000 | Cc1cn([C@H]2CC[C@@H](CO)O2)c(=O)[nH]c1=O | > 100000 | > 100000 | > 100000 |  |
| 220 | 2500 | 50 | Cc1cn([C@H]2CC[C@@H](COP(=O)(OCCSC(=O)C(C)(C)C)OCCSC(=O)C(C)(C)C)O2)c(=O)[nH]c1=O | > 10000 | > 10000 | > 10000 |  |
|  |  |  | CC(C)(C)C(=O)OCCSP(=O)([O-])OC[C@@H]1CC[C@H](n2cnc3c(N)ncnc32)O1.[Na+] |  |  |  | Stability [10]: Stable; Stability [11]: Stable; Drug metabolism [12]: Metabolite_Detected |
| 18 | 320 |  | CC(C)(C)C(=O)SCCOP(=O)(OCCSC(=O)C(C)(C)C)OC[C@@H]1C=C[C@H](n2cnc3c(N)ncnc32)O1 | 5900 | 9000 |  | EC50 [4]: 47 nM; EC50 [5]: 0.16 nM; CC50 [7]: 1700 nM; CC50 [8]: 3600 nM; half-life [13]: 432 h; half-life [14]: 302 h; half-life [15]: 166 h; half-life [16]: 1 h; Drug metabolism [17]: Metabolite_Detected |
|  |  |  | CC(C)(C)C(=O)SCCOP(=O)([O-])OC[C@@H]1CC[C@H](n2cnc3c(N)ncnc32)O1.[Na+] |  |  |  | Stability [10]: Stable; Stability [11]: Stable; Drug metabolism [18]: Metabolite_Detected; Drug metabolism [12]: Metabolite_Detected |
| 30 | 260 | 21 | Cc1cn([C@H]2C=C[C@@H](COP(=O)(OCCSC(=O)C(C)(C)C)OCCSC(=O)C(C)(C)C)O2)c(=O)[nH]c1=O | > 10000 | > 10000 | 4600 |  |
| 59 | 280 | > 10000 | Cc1cn([C@H]2C=C[C@@H](CO)O2)c(=O)[nH]c1=O [STAVUDINE] | > 100000 | > 100000 | > 100000 |  |

| SMILES | EC50 [2] [nM] | EC50 [3] [nM] | EC50 [9] [nM] | CC50 (CEM-SS) [nM] | CC50 [6] [nM] | CC50 (CEM-TK(-)) [nM] | also measured |
| --- | --- | --- | --- | --- | --- | --- | --- |
| Cc1cn([C@H]2C=C[C@@H](COP(=O)(SCCOC(=O)C(C)(C)C)SCCOC(=O)C(C)(C)C)O2)c(=O)[nH]c1=O | 27 | 99 | 5 | > 10000 | > 10000 | 8000 |  |
| Cc1cn([C@H]2CC[C@@H](COP(=O)(SCCOC(=O)C(C)(C)C)SCCOC(=O)C(C)(C)C)O2)c(=O)[nH]c1=O | 80 | 900 | 50 | > 10000 | > 10000 | > 10000 |  |
| CC(C)(C)C(=O)OCCSP(=O)(OC[C@@H]1CC[C@H](n2cnc3c(N)ncnc32)O1)SCCOC(=O)C(C)(C)C | 25 | 270 |  | > 10000 | > 1000 |  | EC50 [4]: 20 nM; EC50 [5]: 0.23 nM; CC50 [7]: > 10000 nM; CC50 [8]: 8600 nM; half-life [13]: 69.6 h; half-life [14]: 52.8 h; half-life [15]: 38.4 h; half-life [16]: 5.3 h; Drug metabolism [19]: Metabolite_Detected; Drug metabolism [20]: Metabolite_Detected |
